{"source": "patent US7351408B2", "about": "(priority 1997, dated 2008)", "type_in_all_cases": "cell-based, human", "key": {"Jurkat cells [1]": {"test_system": "Jurkat cells"}, "HL-60 cells": {"test_system": "HL-60 cells"}, "HeLa cells": {"test_system": "HeLa cells"}, "Jurkat cells [2]": {"test_system": "Jurkat cells", "test": "Cell morphology and rate of cell growth during prolonged treatment", "conditions": "up to 6 weeks", "text": "We have also determined the quantitative and physiological limits to the cell surface expression of reactive functional groups. […] At saturation, we calculated the number of ketones accessible to chemoselective ligation and flow cytometry analysis to be approximately 1.8×10^6 per cell (32). No effects on cell morphology or the rate of cell growth were observed during prolonged (up to 6 weeks) treatment with ManLev."}, "Jurkat cells [3]": {"test_system": "Jurkat cells", "test": "Normal sialic acid released by sialidase digestion, quantified by HPAEC", "text": "We therefore evaluated the effects of ManLev treatment on the amount of normal sialic acid on Jurkat cells, expecting a reduction."}}}
{"compound": "CC(=O)N[C@@H]1C(O)O[C@H](CO)[C@@H](O)[C@@H]1O", "note": "(stereo partly drawn) [ManNAc, N-Acetylmannosamine, reference compound]", "values": [{"measurement": "effect on ketone expression resulting from ManLev treatment", "setting": "Jurkat cells [1]", "result": "inhibited"}, {"measurement": "increase in fluorescence above the background level (ketone expression)", "setting": "Jurkat cells [1]", "result": "only a background level of fluorescence"}, {"measurement": "increase in fluorescence above the background level (ketone expression)", "setting": "HL-60 cells", "result": "only a background level of fluorescence"}, {"measurement": "increase in fluorescence above the background level (ketone expression)", "setting": "HeLa cells", "result": "only a background level of fluorescence"}]}
{"compound": "CC(=O)CCC(=O)N[C@H]1C(O)O[C@H](CO)[C@@H](O)[C@@H]1O", "note": "(stereo partly drawn) [GlcLev, N-levulinoyl glucosamine]", "values": [{"measurement": "increase in fluorescence above the background level (ketone expression)", "setting": "Jurkat cells [1]", "result": "only background fluorescence"}]}
{"compound": "CC(=O)CCC(=O)N[C@@H]1C(O)O[C@H](CO)[C@@H](O)[C@@H]1O", "note": "(stereo partly drawn) [ManLev, N-levulinoyl mannosamine]", "values": [{"measurement": "dose dependence of ketone expression", "setting": "Jurkat cells [1]", "result": "dose dependent and saturable"}, {"measurement": "increase in fluorescence above the background level (ketone expression)", "setting": "Jurkat cells [1]", "result": "≤ 30", "unit": "fold"}, {"measurement": "number of ketones accessible to chemoselective ligation and flow cytometry analysis", "setting": "Jurkat cells [1]", "result": "approximately 1.8×10^6 per cell"}, {"measurement": "increase in fluorescence above the background level (ketone expression)", "setting": "HL-60 cells", "result": "≤ 30", "unit": "fold"}, {"measurement": "effects on cell morphology or the rate of cell growth", "setting": "Jurkat cells [2]", "result": "No effects"}, {"measurement": "amount of sialic acid released by sialidase digestion, lower than that from ManNAc-treated cells", "setting": "Jurkat cells [3]", "result": "approximately 10 fold"}, {"measurement": "increase in fluorescence above the background level (ketone expression)", "setting": "HeLa cells", "result": "≤ 30", "unit": "fold"}]}
{"compound": "tunicamycin", "values": [{"measurement": "effect on ketone expression resulting from ManLev treatment", "setting": "Jurkat cells [1]", "result": "inhibited by tunicamycin in a dose-dependent fashion"}, {"measurement": "effect on ketone expression resulting from ManLev treatment", "setting": "HL-60 cells", "result": "unaffected"}, {"measurement": "effect on ketone expression resulting from ManLev treatment", "setting": "HeLa cells", "result": "unaffected"}]}
